Results published in PubChem BioAssay AID206 (DTP/NCI, 2004).
Inconclusive results are not listed.

Test system: nude mice, HT29 intrarenal xenograft, tumor weight T/C
Test: NCI In Vivo Anticancer Drug Screen. Data for tumor model HT29;CX-1 Human Adenocarcinoma (MER+) (intrarenal inoculation) in NU/NU Swiss (nude) mice
Conditions: endpoint: mean tumor weight change, higher = larger tumour
How it was run: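 Endpoint measured as tumor size or survival; ratio reported is treated group over vehicle controls.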

[1] = dose: 25.0 mg/kg/injection, schedule: Q04DX004 (sc), vehicle: suspension in saline
[2] = dose: 150.0 mg/kg/injection, schedule: Q04DX004 (sc), vehicle: saline with Tween-80
[3] = dose: 75.0 mg/kg/injection, schedule: Q04DX004 (sc), vehicle: saline with Tween-80
[4] = dose: 300.0 mg/kg/injection, schedule: Q04DX004 (sc), vehicle: saline with Tween-80
[5] = dose: 1200.0 mg/kg/injection, schedule: Q04DX004 (sc), vehicle: saline with Tween-80
[6] = dose: 50.0 mg/kg/injection, schedule: Q01DX010 (sc), vehicle: saline with Tween-80
[7] = dose: 100.0 mg/kg/injection, schedule: Q01DX010 (sc), vehicle: saline with Tween-80
[8] = dose: 50.0 mg/kg/injection, schedule: Q04DX004 (sc), vehicle: saline with Tween-80
[9] = dose: 100.0 mg/kg/injection, schedule: Q04DX004 (sc), vehicle: saline with Tween-80
[10] = dose: 200.0 mg/kg/injection, schedule: Q04DX004 (sc), vehicle: saline with Tween-80

For `C[C@H](N)C(=O)N[C@@H]1[C@H]2C(=C(O)C[C@@H](O)[C@@H]2O)C(=O)O[C@]1(C)C(Cl)Cl`, the T/C (dose: 1.5 mg/kg/injection, schedule: Q04DX004 (sc), vehicle: Klucel (hydroxypropylcellulose) (HPC)) was 33 % of control.

For `C=C1C(=O)O[C@@H]2[C@H](O)[C@@H](C)[C@@H]3C=CC(=O)[C@@]3(C)[C@H](OC(=O)C=C(C)C)[C@H]12`, the T/C (dose: 9.38 mg/kg/injection, schedule: Q04DX004 (sc), vehicle: saline with Tween-80) was 93 % of control, the T/C (dose: 18.75 mg/kg/injection, schedule: Q04DX004 (sc), vehicle: saline with Tween-80) was 121 % of control and the T/C (dose: 37.5 mg/kg/injection, schedule: Q04DX004 (sc), vehicle: saline with Tween-80) was 87 % of control.

In the case of `COc1cccc2c1C(=O)c1c(O)c3c(c(O)c1C2=O)C[C@@](O)(/C(C)=N/NC(=O)c1cccc([N+](=O)[O-])c1)C[C@@H]3OC1CC(N)C(O)C(C)O1` (stereo partly specified), the T/C (dose: 8.0 mg/kg/injection, schedule: Q01DX010 (sc), vehicle: water) is reported as 16 % of control, the T/C (dose: 10.0 mg/kg/injection, schedule: Q04DX004 (sc), vehicle: water) is reported as 48 % of control and the T/C (dose: 16.0 mg/kg/injection, schedule: Q01DX010 (sc), vehicle: water) is reported as 61 % of control. For the same compound, the T/C (dose: 20.0 mg/kg/injection, schedule: Q04DX004 (sc), vehicle: water) was 70 % of control, the T/C (dose: 40.0 mg/kg/injection, schedule: Q04DX004 (sc), vehicle: water) was 47 % of control and the T/C (dose: 80.0 mg/kg/injection, schedule: Q04DX004 (sc), vehicle: water) was 106 % of control.

In the case of `NC(=O)c1ncn2c(=O)n(CCCl)nnc12`, the T/C [1] is reported as 214 % of control and the T/C (dose: 50.0 mg/kg/injection, schedule: Q04DX004 (sc), vehicle: suspension in saline) is reported as 72 % of control.

In the case of `CS(=O)(=O)OCCN(CCOS(C)(=O)=O)c1ccc(C=Nc2ccc(-c3csc(COc4ccccc4)n3)cc2)cc1`, the T/C (dose: 50.0 mg/kg/injection, schedule: Q01DX010 (sc), vehicle: Klucel (hydroxypropylcellulose) (HPC)) is reported as 72 % of control and the T/C (dose: 100.0 mg/kg/injection, schedule: Q01DX010 (sc), vehicle: Klucel (hydroxypropylcellulose) (HPC)) is reported as 44 % of control.

`CN=S(=O)(OCCCCCOS(=O)(=NC)c1ccc(C)cc1)c1ccc(C)cc1` (stereo unspecified) was tested, and the T/C [2] was 81 % of control.

`Nc1nc2c(C(=O)N3CCCC3)nnn2c2ccccc12` was tested, and the T/C [3] was 157 % of control.

For `CN(C)C(=O)c1cccc(COc2ccc(N3C(N)=NC(N)=NC3(C)C)cc2Cl)c1`, the T/C (dose: 12.5 mg/kg/injection, schedule: Q01DX010 (sc), vehicle: water) was 82 % of control.

`Oc1c(Cl)cc(Cl)cc1C1N2CCCCC2C2c3cccn3-c3ccccc3N21` (stereo unspecified) was tested, and the T/C (dose: 1200.0 mg/kg/injection, schedule: Q04DX004 (sc), vehicle: Klucel (hydroxypropylcellulose) (HPC)) was 111 % of control.

For `C=C(C)[C@H]1Cc2c(ccc3c2O[C@@H]2COc4cc(OC)c(OC)cc4[C@@H]2C3=O)O1`, the T/C (dose: 2.0 mg/kg/injection, schedule: Q01DX010 (sc), vehicle: saline with Tween-80) was 161 % of control, the T/C (dose: 4.0 mg/kg/injection, schedule: Q01DX010 (sc), vehicle: saline with Tween-80) was 29 % of control and the T/C (dose: 8.0 mg/kg/injection, schedule: Q01DX010 (sc), vehicle: saline with Tween-80) was 57 % of control.

With `CCCCCCC(=O)CC(SCC)c1ccccc1Cl` (stereo unspecified) the T/C [2] was 94 % of control, the T/C [4] was 92 % of control and the T/C [5] was 99 % of control.

In the case of `CC(=O)[C@]1(O)Cc2c(O)c3c(c(O)c2[C@@H](OC2CC(N)C(O)C(C)O2)C1)C(=O)c1c(O)cccc1C3=O` (stereo partly specified), the T/C (dose: 0.63 mg/kg/injection, schedule: Q04DX004 (sc), vehicle: saline) is reported as 50 % of control and the T/C (dose: 1.25 mg/kg/injection, schedule: Q04DX004 (sc), vehicle: saline) is reported as 68 % of control.

With `O=c1cc(CCl)[nH]nc1CCl` the T/C (dose: 25.0 mg/kg/injection, schedule: Q01DX010 (sc), vehicle: saline with Tween-80) was 90 % of control, the T/C [6] was 156 % of control and the T/C [7] was 90 % of control. The T/C (dose: 200.0 mg/kg/injection, schedule: Q01DX010 (sc), vehicle: saline with Tween-80) was 27 % of control.

With `COC1CC(CC2CCC(C)C(C(C)C(=O)O)O2)OC2(OC(C)(C3CCC(C)(C4OC(C5OC(O)(CO)C(C)CC5C)CC4C)O3)CC2C)C1C` (stereo unspecified) the T/C (dose: 3.75 mg/kg/injection, schedule: Q04DX004 (sc), vehicle: Klucel (hydroxypropylcellulose) (HPC)) was 34 % of control and the T/C (dose: 7.5 mg/kg/injection, schedule: Q04DX004 (sc), vehicle: Klucel (hydroxypropylcellulose) (HPC)) was 107 % of control.

For `CSc1ccc2c(c1)C(N1CCN(C)CC1)Cc1ccccc1S2` (stereo unspecified), the T/C (dose: 12.5 mg/kg/injection, schedule: Q04DX004 (sc), vehicle: saline with Tween-80) was 80 % of control, the T/C (dose: 25.0 mg/kg/injection, schedule: Q04DX004 (sc), vehicle: saline with Tween-80) was 98 % of control and the T/C [8] was 124 % of control.

In the case of `COC(=O)CC(N)C(=O)O` (stereo unspecified), the T/C (dose: 225.0 mg/kg/injection, schedule: Q04DX004 (sc), vehicle: saline with Tween-80) is reported as 103 % of control, the T/C (dose: 450.0 mg/kg/injection, schedule: Q04DX004 (sc), vehicle: saline with Tween-80) is reported as 81 % of control and the T/C (dose: 900.0 mg/kg/injection, schedule: Q04DX004 (sc), vehicle: saline with Tween-80) is reported as 69 % of control. The T/C (dose: 1800.0 mg/kg/injection, schedule: Q04DX004 (sc), vehicle: saline with Tween-80) was 35 % of control.

`O=C(O)CSc1nc(-c2ccccc2)c(-c2ccccc2)n1-c1ccccn1` was tested, and the T/C (dose: 250.0 mg/kg/injection, schedule: Q04DX004 (sc), vehicle: water) was 55 % of control.

In the case of `[Cl][Pt+2][Cl].[NH-]C1CCC1.[NH2-]`, the T/C (dose: 6.25 mg/kg/injection, schedule: Q04DX004 (sc), vehicle: suspension in saline) is reported as 54 % of control, the T/C (dose: 12.5 mg/kg/injection, schedule: Q04DX004 (sc), vehicle: suspension in saline) is reported as 41 % of control and the T/C [1] is reported as 46 % of control.

`CS(=O)(=O)c1ncc(Br)cn1` was tested, and the T/C (dose: 62.5 mg/kg/injection, schedule: Q04DX004 (sc), vehicle: saline) was 83 % of control, the T/C [3] was 99 % of control and the T/C (dose: 125.0 mg/kg/injection, schedule: Q04DX004 (sc), vehicle: saline) was 109 % of control. The T/C [2] was 109 % of control, the T/C (dose: 250.0 mg/kg/injection, schedule: Q04DX004 (sc), vehicle: saline) was 92 % of control and the T/C [4] was 57 % of control. For the same compound, the T/C (dose: 500.0 mg/kg/injection, schedule: Q04DX004 (sc), vehicle: saline) was 89 % of control.

With `O=C(Nc1ccccc1C(=O)O)c1cc([N+](=O)[O-])cc([N+](=O)[O-])c1` the T/C [8] was 91 % of control, the T/C [9] was 120 % of control and the T/C [10] was 119 % of control.

In the case of `Cc1c(N)nc([C@H](CC(N)=O)NC[C@H](N)C(N)=O)nc1C(=O)N[C@H](C(=O)N[C@H](C)[C@@H](O)CC(=O)N[C@H](C(=O)NC(O[C@@H]1O[C@@H](C)[C@@H](N)[C@@H](O)[C@H]1O)C(O)c1nc(-c2nc(C(=O)NCCCCN)cs2)cs1)[C@@H](C)O)[C@@H](O[C@@H]1O[C@@H](CO)[C@@H](O)[C@H](O)[C@@H]1O[C@H]1O[C@H](CO)[C@@H](O)[C@H](OC(N)=O)[C@@H]1O)c1c[nH]cn1` (stereo partly specified), the T/C (dose: 4.0 mg/kg/injection, schedule: Q04DX004 (sc), vehicle: saline) is reported as 104 % of control, the T/C (dose: 8.0 mg/kg/injection, schedule: Q04DX004 (sc), vehicle: saline) is reported as 68 % of control and the T/C (dose: 16.0 mg/kg/injection, schedule: Q04DX004 (sc), vehicle: saline) is reported as 73 % of control. The T/C (dose: 32.0 mg/kg/injection, schedule: Q04DX004 (sc), vehicle: saline) was 28 % of control.

For `Nc1cc2c3c(cccc3c1)C(=O)N(CCN1CCCC1)C2=O`, the T/C [8] was 170 % of control, the T/C [9] was 202 % of control and the T/C [10] was 233 % of control. The T/C (dose: 400.0 mg/kg/injection, schedule: Q04DX004 (sc), vehicle: saline with Tween-80) was 177 % of control.

`CN1C(=O)NC(c2ccc(Cl)cc2)(c2ccc(Cl)cc2)C1=O` was tested, and the T/C [6] was 97 % of control, the T/C [7] was 109 % of control and the T/C (dose: 400.0 mg/kg/injection, schedule: Q01DX010 (sc), vehicle: saline with Tween-80) was 43 % of control.

`CC[C@@]1(O)C[C@H](OC2CC(N(C)C)C(OC3CC(O)C(OC4CCC(=O)C(C)O4)C(C)O3)C(C)O2)c2c(cc3c(c2O)C(=O)c2c(O)ccc(O)c2C3=O)[C@H]1C(=O)OC` (stereo partly specified) was tested, and the T/C (dose: 3.0 mg/kg/injection, schedule: Q04DX004 (sc), vehicle: water) was 12 % of control and the T/C (dose: 6.0 mg/kg/injection, schedule: Q04DX004 (sc), vehicle: water) was -24 % of control.

With `COc1cccc(C2NC(=O)c3c(n[nH]c3N)S2)c1O` (stereo unspecified) the T/C [5] was 53 % of control and the T/C (dose: 2400.0 mg/kg/injection, schedule: Q04DX004 (sc), vehicle: saline with Tween-80) was 117 % of control.

`COc1ccc2[nH]c3c(c2c1)CCNC3CC(C)CCC=C(C)C` (stereo unspecified) was tested, and the T/C (dose: 37.5 mg/kg/injection, schedule: Q04DX004 (sc), vehicle: Klucel (hydroxypropylcellulose) (HPC)) was 47 % of control, the T/C (dose: 150.0 mg/kg/injection, schedule: Q04DX004 (sc), vehicle: Klucel (hydroxypropylcellulose) (HPC)) was 62 % of control and the T/C (dose: 300.0 mg/kg/injection, schedule: Q04DX004 (sc), vehicle: Klucel (hydroxypropylcellulose) (HPC)) was 55 % of control.
